Assay results from the NIST ThermoML archive (doi:10.1021/je060271a).

Settings: 283.14 K, Liquid, Vibrating tube method

CCCCCCC(=O)OCC(COC(=O)CCCCCC)(COC(=O)CCCCCC)COC(=O)CCCCCC [pentaerythritol tetraheptanoate]
Settings | mass density [kg/m3]
13797 kPa | 993.7
13815 kPa | 993.7
13832 kPa | 993.7
13850 kPa | 993.7
13872 kPa | 993.7
13889 kPa | 993.7
13907 kPa | 993.7
13928 kPa | 993.7
13946 kPa | 993.7
13964 kPa | 993.7
13985 kPa | 993.7
14003 kPa | 993.7
14021 kPa | 993.7
14043 kPa | 993.7
14061 kPa | 993.8
14079 kPa | 993.9
14098 kPa | 993.8
14120 kPa | 993.8
14138 kPa | 993.9
14160 kPa | 993.9
14178 kPa | 993.9
14197 kPa | 993.9
14216 kPa | 993.8
14238 kPa | 993.9
14256 kPa | 993.9
14278 kPa | 993.9
14297 kPa | 993.9
14316 kPa | 993.9
14339 kPa | 994
14358 kPa | 994
14377 kPa | 993.9
14396 kPa | 993.9
14419 kPa | 993.9
14438 kPa | 994
14458 kPa | 994
14480 kPa | 994
14500 kPa | 994
14523 kPa | 994
14542 kPa | 994.1
14561 kPa | 994
14585 kPa | 994.1
14605 kPa | 994.1
14625 kPa | 994.1
14645 kPa | 994
14668 kPa | 994.1
14688 kPa | 994.1
14708 kPa | 994.1
14733 kPa | 994.2
14752 kPa | 994.2
14772 kPa | 994.3
14797 kPa | 994
14817 kPa | 994.3
14838 kPa | 994.2
14863 kPa | 994.2
14884 kPa | 994.2
14905 kPa | 994.2
14926 kPa | 994.3
14946 kPa | 994.2
14971 kPa | 994.3
14991 kPa | 994.2
15016 kPa | 994.3
15037 kPa | 994.2
15057 kPa | 994.4
15083 kPa | 994.4
15104 kPa | 994.4
15125 kPa | 994.4
15151 kPa | 994.5
15173 kPa | 994.4
15194 kPa | 994.3
15216 kPa | 994.4
15242 kPa | 994.5
15263 kPa | 994.4
15285 kPa | 994.5
15310 kPa | 994.4
15332 kPa | 994.4
15354 kPa | 994.5
15567 kPa | 994.5
15589 kPa | 994.5
15616 kPa | 994.6
15638 kPa | 994.6
15661 kPa | 994.7
15689 kPa | 994.7
15711 kPa | 994.7
15734 kPa | 994.7
15762 kPa | 994.7
15785 kPa | 994.6
15808 kPa | 994.8
15836 kPa | 994.7
15860 kPa | 994.8
15883 kPa | 994.8
15911 kPa | 994.9
15934 kPa | 994.7
15958 kPa | 994.8
15982 kPa | 994.8
16010 kPa | 994.9
16034 kPa | 994.8
16062 kPa | 995
16087 kPa | 995
16111 kPa | 994.9
16139 kPa | 994.9
16164 kPa | 994.9
16188 kPa | 994.8
16212 kPa | 994.9
16242 kPa | 994.9
16266 kPa | 995.1
16291 kPa | 994.9
16321 kPa | 994.9
16345 kPa | 995
16375 kPa | 995
16400 kPa | 995
16425 kPa | 995.1
16450 kPa | 995.1
16481 kPa | 995
16506 kPa | 995.1
16531 kPa | 995.1
16587 kPa | 995.1
16617 kPa | 995.2
16669 kPa | 995.1
16725 kPa | 995.2
16752 kPa | 995.2
16779 kPa | 995.3
16810 kPa | 995.3
16836 kPa | 995.2
16868 kPa | 995.2
16894 kPa | 995.4
16921 kPa | 995.3
16953 kPa | 995.3
16980 kPa | 995.4
17007 kPa | 995.4
17035 kPa | 995.4
17068 kPa | 995.4
17095 kPa | 995.5
17124 kPa | 995.4
17152 kPa | 995.4
17180 kPa | 995.5
17214 kPa | 995.3
17241 kPa | 995.5
17269 kPa | 995.5
17363 kPa | 995.5
17449 kPa | 995.6
17484 kPa | 995.7
17513 kPa | 995.5
17543 kPa | 995.7
17572 kPa | 995.6
17607 kPa | 995.7
17636 kPa | 995.8
17666 kPa | 995.6
17700 kPa | 995.7
17729 kPa | 995.8
17759 kPa | 995.8
17794 kPa | 995.8
17824 kPa | 995.7
17854 kPa | 995.8
17890 kPa | 995.9
17920 kPa | 995.8
17950 kPa | 995.9
17986 kPa | 995.8
18017 kPa | 995.9
18048 kPa | 996
18085 kPa | 995.9
18116 kPa | 995.9
18147 kPa | 995.9
18184 kPa | 995.9
18215 kPa | 996
18247 kPa | 996
18278 kPa | 996
18316 kPa | 995.9
18348 kPa | 996
18380 kPa | 996.1
18419 kPa | 996.1
18450 kPa | 996.2
18489 kPa | 996.2
18522 kPa | 996.1
18554 kPa | 996.1
18586 kPa | 996.1
18625 kPa | 996.3
18658 kPa | 996.3
18697 kPa | 996.3
18731 kPa | 996.2
18764 kPa | 996.3
18805 kPa | 996.3
18839 kPa | 996.3
18873 kPa | 996.3
18908 kPa | 996.4
18950 kPa | 996.4
18986 kPa | 996.4
19030 kPa | 996.4
19067 kPa | 996.3
19105 kPa | 996.5
19144 kPa | 996.5
19165 kPa | 996.5
19176 kPa | 996.5
19199 kPa | 996.5
19220 kPa | 996.4
19241 kPa | 996.6
19262 kPa | 996.5
19288 kPa | 996.7
19308 kPa | 996.5
19333 kPa | 996.6
19354 kPa | 996.5
19376 kPa | 996.7
19396 kPa | 996.7
19422 kPa | 996.6
19443 kPa | 996.8
19465 kPa | 996.7
19491 kPa | 996.7
19512 kPa | 996.7
19538 kPa | 996.8
19560 kPa | 996.7
19582 kPa | 996.6
19604 kPa | 996.8
19630 kPa | 996.7
19652 kPa | 996.7
19675 kPa | 996.7
19697 kPa | 996.7
19746 kPa | 996.8
19769 kPa | 996.8
19796 kPa | 996.9
19818 kPa | 996.8
19841 kPa | 996.8
19863 kPa | 996.9
19890 kPa | 996.9
19912 kPa | 996.9
